Reference: paper PMC3190643 (Journal of medicinal chemistry, 2011)
Counter-ions that a name gives are not always drawn. Like-named read-outs stand apart in the source and are kept apart here.

Columns and labels:
[1] = cited from earlier work
[2] = Metabolic stability in mouse liver microsomes; format: in vitro ADME; conditions: calculated from in vitro half-life; for CLint scaled at 100 μM: mouse, microsomes, pH 7.4, CLint,app
[3] = Metabolic stability in rat liver microsomes; format: in vitro ADME; conditions: pH 7.4
[4] = Metabolic stability in human liver microsomes; format: in vitro ADME; conditions: pH 7.4
[5] = for plasma concentration: IV dose of 3, mice, normalized to 8.13 mg/kg
[6] = in vivo; conditions: male, C57Bl/6J, mouse, iv
[7] = test system: Salmonella typhimurium Ames II mixed strains (TA7001 to TA7006) and tester strain TA98; assay: Ames II mutagenicity assay; conditions: with and without rat S9 activation, up to 1 mg/mL
[8] = biological target: T1, Human recombinant active MMP-2 (Homo sapiens, UniProt P08253); conditions: slow-binding
T1 sequence (P08253 110-660): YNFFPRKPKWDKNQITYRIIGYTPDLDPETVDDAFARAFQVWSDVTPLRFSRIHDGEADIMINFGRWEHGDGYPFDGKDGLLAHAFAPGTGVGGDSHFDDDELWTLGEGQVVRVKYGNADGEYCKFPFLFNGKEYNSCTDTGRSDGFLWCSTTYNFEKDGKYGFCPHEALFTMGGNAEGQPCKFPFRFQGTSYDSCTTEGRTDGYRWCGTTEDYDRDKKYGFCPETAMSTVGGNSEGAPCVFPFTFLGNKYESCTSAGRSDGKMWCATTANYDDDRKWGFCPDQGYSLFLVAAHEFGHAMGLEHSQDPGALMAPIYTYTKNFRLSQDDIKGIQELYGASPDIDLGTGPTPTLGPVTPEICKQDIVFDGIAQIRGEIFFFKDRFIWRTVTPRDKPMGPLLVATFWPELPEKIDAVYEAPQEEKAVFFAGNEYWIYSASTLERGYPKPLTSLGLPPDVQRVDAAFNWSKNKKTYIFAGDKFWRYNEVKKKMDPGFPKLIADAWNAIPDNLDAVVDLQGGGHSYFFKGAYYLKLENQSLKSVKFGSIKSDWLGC

[9] = biological target: catalytic domain of human recombinant MMP-9 (Homo sapiens, UniProt P14780); conditions: slow-binding
[10] = biological target: catalytic domain of MMP-14 (Homo sapiens, UniProt P50281); conditions: slow-binding
[11] = humans; cited from earlier work
[12] = t½ α (distribution half life), IV dose of 5d […], mice
[13] = t½ β (terminal half life), IV dose of 5d […], mice

catalytic domain of human recombinant MMP-9, sequence (P14780 107-444 limits assumed): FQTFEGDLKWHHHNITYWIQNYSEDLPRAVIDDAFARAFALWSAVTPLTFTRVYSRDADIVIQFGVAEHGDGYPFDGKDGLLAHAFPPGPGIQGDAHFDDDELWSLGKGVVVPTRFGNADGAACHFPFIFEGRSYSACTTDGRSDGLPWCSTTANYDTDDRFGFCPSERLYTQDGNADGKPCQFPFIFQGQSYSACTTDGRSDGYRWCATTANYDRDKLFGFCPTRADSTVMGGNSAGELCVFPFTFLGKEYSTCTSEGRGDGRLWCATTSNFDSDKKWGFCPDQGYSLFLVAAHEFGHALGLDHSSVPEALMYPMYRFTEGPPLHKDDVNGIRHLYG

O=S(=O)(CC1CS1)c1ccc(Oc2ccccc2)cc1 (stereo not drawn) [Compound 1, (4-phenoxyphenylsulfonyl)methylthiirane]
intrinsic clearance in the rat [1]: 117 mL/min/kg
t½ in rat liver microsomes [1]: 12.0 min

Nc1ccc(Oc2ccc(S(=O)(=O)CC3CS3)cc2)cc1 (stereo not drawn) [Compound 3, 4-[4-((Thiiran-2-yl)methylsulfonyl)phenoxy]benazamine · HCl salt]
CLint,app [2]: 102.8 ± 7.9 mL/min/kg
CLint scaled at 100 μM [2]: 103 mL/min/kg
CLint scaled at 100 μM [3]: 60 ± 1.8 mL/min/kg
CLint scaled at 100 μM [4]: < 10 mL/min/kg
time plasma levels were higher than the Ki for MMP-9 ([5]; male, C57Bl/6J, mouse, in vivo): 20 min
Vd [6]: 0.0125 L
clearance [6]: 87.5 mL/min/kg
half-life [6, 12]: 2.9 min
half-life [6, 13]: 69 min
Ames II mutagenicity response [7]: negative (non-mutagenic)

NCC(=O)Nc1ccc(Oc2ccc(S(=O)(=O)CC3CS3)cc2)cc1 (stereo not drawn) [Compound 5a]
10^4koff, MMP-2 [8]: 8.2 ± 0.9 s^−1
10^−3kon, MMP-2 [8]: 1.9 ± 0.6 M^−1s^−1
10^4koff, MMP-9 catalytic domain [9]: 6.5 ± 0.6 s^−1
10^−3kon, MMP-9 catalytic domain [9]: 0.21 ± 0.04 M^−1s^−1

NCCCC[C@H](N)C(=O)Nc1ccc(Oc2ccc(S(=O)(=O)CC3CS3)cc2)cc1 (stereo partly drawn) [Compound 5b]
10^4koff, MMP-2 [8]: 2.1 ± 0.9 s^−1
10^−3kon, MMP-2 [8]: 3.4 ± 0.1 M^−1s^−1
10^4koff, MMP-9 catalytic domain [9]: 4.2 ± 0.7 s^−1
10^−3kon, MMP-9 catalytic domain [9]: 0.27 ± 0.04 M^−1s^−1

N[C@@H](CCC(=O)O)C(=O)Nc1ccc(Oc2ccc(S(=O)(=O)CC3CS3)cc2)cc1 (stereo partly drawn) [Compound 5c]
10^4koff, MMP-2 [8]: 1.8 ± 1.6 s^−1
10^−3kon, MMP-2 [8]: 2.5 ± 0.1 M^−1s^−1
10^4koff, MMP-9 catalytic domain [9]: 12.0 ± 0.7 s^−1
10^−3kon, MMP-9 catalytic domain [9]: 0.28 ± 0.02 M^−1s^−1

N=C(N)NCCC[C@H](N)C(=O)Nc1ccc(Oc2ccc(S(=O)(=O)CC3CS3)cc2)cc1 (stereo partly drawn) [Compound 5d]
CLint scaled at 100 μM [2]: < 47 mL/min/kg
CLint scaled at 100 μM [3]: 23.7 ± 1.8 mL/min/kg
half-life at 100 μM [3]: ≥ 60 min
CLint scaled at 100 μM [4]: < 10 mL/min/kg
Vd [6]: 0.0978 L/kg
clearance [6]: 58.2 mL/min/kg
half-life ([6]; elimination (terminal) half life t½ β, IV dose of 5d […], mice): > 240 min
half-life [6, 12]: < 1 min
half-life [6, 13]: 260 min
Ames II mutagenicity response [7]: negative (non-mutagenic)

Nc1ccc(Oc2ccc(S(=O)(=O)CC3CS3)cc2)cc1O (stereo not drawn) [Compound 13, 2-Amino-5-(4-((thiiran-2-ylmethyl)sulfonyl)phenoxy)phenol]
10^4koff, MMP-2 [8]: 1.4 ± 0.7 s^−1
10^−3kon, MMP-2 [8]: 1.7 ± 0.1 M^−1s^−1
10^4koff, MMP-9 catalytic domain [9]: 5.3 ± 1.0 s^−1
10^−3kon, MMP-9 catalytic domain [9]: 1.1 ± 0.1 M^−1s^−1
10^4koff, MMP-14 catalytic domain [10]: 7.0 ± 1.6 s^−1
10^−3kon, MMP-14 catalytic domain [10]: 2.7 ± 0.3 M^−1 s^−1

CC(=O)Nc1ccc(Oc2ccc(S(=O)(=O)CC3CS3)cc2)cc1 (stereo not drawn) [Compound M3]
plasma concentration ([5]; 2-3 min): 197 ± 61.6 nM
plasma concentration ([5]; 4-5 min): 462 ± 313 nM
plasma concentration ([5]; 7-8 min): 192 ± 12.1 nM
plasma concentration ([5]; 11-12 min): 150 ± 27.2 nM
plasma concentration ([5]; 62-66 min): 27.3 ± 6.28 nM
half-life [6, 12]: 12 min
half-life ([6]; t½ α, IV dose of 3, mice): 5.1 min

CC(C)c1cccc(C(C)C)c1O [propofol]
Vd [11]: 12.4 L/kg
